According to patent US9604933B2, “Pyrazolochalcones as potential anticancer agents” (COUNCIL OF SCIENTIFIC AND INDUSTRIAL RESEARCH, priority 2013, dated 2017):
Where two headings read alike, the source gives them in different places.

Experiments:
[1] = tested on: K-562; assay: NCI SRB cytotoxicity, leukemia K-562; assay type: cell-based; conditions: Homo sapiens, K562, 48 h exposure
Procedure: (§1) The pyrazolochalcones (7e, 8e, 10e, 11e, 12e, 13e and 8f) have been tested against fifty nine human tumor cell lines derived from nine cancer types (leukemia, non-small cell lung cancer, colon cancer, CNS cancer, melanoma, ovarian cancer, renal cancer, prostate cancer and breast cancer) as per the NCI protocol. For each compound, dose response curves for individual cell lines have been measured at a minimum of five concentrations at 10 fold dilutions. A protocol of 48 h continuous drug exposure has been used, and a sulforhodamine B (SRB) protein assay has been used to estimate cell viability or growth. The concentration for 50% cell growth inhibition (GI50), 50% cell death (LC50, 50% growth) and total cell growth inhibition (TGI, 0% growth) values were tabulated (Table-1). DMSO was used as control to calculate the values of GI50, LC50 and TGI. The compounds 7e, 8e, 10e, 11e, 12e, 13e and 8f has been evaluated for their in vitro cytotoxicity in […] cell lines from nine human cancer types of leukemia (K-562, SR), non-small cell lung (Hop-62, NCI-H226, NCI-H522), colon (HCT-116, HCT-15, HCC-2998), CNS (SF-539), melanoma (SK-MEL-5, UACC-62, M14), ovarian (IGROV1), renal (A498), prostate (PC3) and breast (BT-549, MDA-MB-435, HS578T) origin. The results are expressed as percent of cell growth determined relative to that of untreated control cells (Table 2).

[2] = tested on: RPMI-8226; assay: NCI SRB cytotoxicity, leukemia RPMI-8226; assay type: cell-based; conditions: Homo sapiens, 48 h exposure
Procedure: as §1

[3] = tested on: SR; assay: NCI SRB cytotoxicity, leukemia SR; assay type: cell-based; conditions: Homo sapiens, 48 h exposure
Procedure: as §1

[4] = tested on: HOP-62; assay: NCI SRB cytotoxicity, non-small cell lung HOP-62; assay type: cell-based; conditions: Homo sapiens, 48 h exposure
Procedure: as §1

[5] = tested on: HOP92; assay: NCI SRB cytotoxicity, non-small cell lung HOP92; assay type: cell-based; conditions: Homo sapiens, HOP-92, 48 h exposure
Procedure: as §1

[6] = tested on: NCI-H23; assay: NCI SRB cytotoxicity, non-small cell lung NCI-H23; assay type: cell-based; conditions: Homo sapiens, 48 h exposure
Procedure: as §1

[7] = tested on: NCI-H460; assay: NCI SRB cytotoxicity, non-small cell lung NCI-H460; assay type: cell-based; conditions: Homo sapiens, 48 h exposure
Procedure: as §1

[8] = tested on: HCC-2998; assay: NCI SRB cytotoxicity, colon HCC-2998; assay type: cell-based; conditions: Homo sapiens, 48 h exposure
Procedure: as §1

[9] = tested on: HCT-15; assay: NCI SRB cytotoxicity, colon HCT-15; assay type: cell-based; conditions: Homo sapiens, 48 h exposure
Procedure: as §1

[10] = tested on: KM12; assay: NCI SRB cytotoxicity, colon KM12; assay type: cell-based; conditions: Homo sapiens, 48 h exposure
Procedure: as §1

[11] = tested on: SNB-75; assay: NCI SRB cytotoxicity, CNS SNB-75; assay type: cell-based; conditions: Homo sapiens, 48 h exposure
Procedure: as §1

[12] = tested on: MDA-MB-435; assay: NCI SRB cytotoxicity, melanoma MDA-MB-435; assay type: cell-based; conditions: Homo sapiens, Melanoma panel MDA-MB-435, 48 h exposure
Procedure: as §1

[13] = tested on: SK-MEL-2; assay: NCI SRB cytotoxicity, melanoma SK-MEL-2; assay type: cell-based; conditions: Homo sapiens, 48 h exposure
Procedure: as §1

[14] = tested on: UACC-257; assay: NCI SRB cytotoxicity, melanoma UACC-257; assay type: cell-based; conditions: Homo sapiens, 48 h exposure
Procedure: as §1

[15] = tested on: IGROV1; assay: NCI SRB cytotoxicity, ovarian IGROV1; assay type: cell-based; conditions: Homo sapiens, IGROV-1, 48 h exposure
Procedure: as §1

[16] = tested on: OVCAR-4; assay: NCI SRB cytotoxicity, ovarian OVCAR-4; assay type: cell-based; conditions: Homo sapiens, 48 h exposure
Procedure: as §1

[17] = tested on: OVCAR-5; assay: NCI SRB cytotoxicity, ovarian OVCAR-5; assay type: cell-based; conditions: Homo sapiens, 48 h exposure
Procedure: as §1

[18] = tested on: OVCAR-8; assay: NCI SRB cytotoxicity, ovarian OVCAR-8; assay type: cell-based; conditions: Homo sapiens, 48 h exposure
Procedure: as §1

[19] = tested on: SK-OV-3; assay: NCI SRB cytotoxicity, ovarian SK-OV-3; assay type: cell-based; conditions: Homo sapiens, 48 h exposure
Procedure: as §1

[20] = tested on: 786-0; assay: NCI SRB cytotoxicity, renal 786-0; assay type: cell-based; conditions: Homo sapiens, 48 h exposure
Procedure: as §1

[21] = tested on: MCF7; assay: NCI SRB cytotoxicity, breast MCF7; assay type: cell-based; conditions: Homo sapiens, 48 h exposure
Procedure: as §1

[22] = tested on: MDA-MB-231/ATCC; assay: NCI SRB cytotoxicity, breast MDA-MB-231/ATCC; assay type: cell-based; conditions: Homo sapiens, 48 h exposure
Procedure: as §1

[23] = tested on: HS 578T; assay: NCI SRB cytotoxicity, breast HS 578T; assay type: cell-based; conditions: Homo sapiens, 48 h exposure
Procedure: as §1

[24] = tested on: MDA-MB-435; assay: NCI SRB cytotoxicity, breast panel MDA-MB-435; assay type: cell-based; conditions: Homo sapiens, 48 h exposure
Procedure: as §1

[25] = tested on: Non-small cell lung; assay: NCI SRB cytotoxicity, non-small cell lung panel average; assay type: cell-based, human; conditions: average of cell lines; for GI50 / LC50: Homo sapiens; for GI50: read-out: Log10 GI50 (concentration in mol/L causing 50% growth inhibition) (converted); for LC50: read-out: Log10 LC50 (concentration in mol/L causing 50% cell death) (converted)
Procedure: as §1
(§2) Each cancer type represents the average of six to eight different cancer cell lines.

[26] = tested on: Renal; assay: NCI SRB cytotoxicity, renal panel average; assay type: cell-based, human; conditions: average of cell lines; for GI50 / CC50: Homo sapiens; for GI50: read-out: Log10 GI50 (concentration in mol/L causing 50% growth inhibition) (converted); for CC50: read-out: Log10 LC50 (concentration in mol/L causing 50% cell death) (converted)
Procedure: as §1, §2

[27] = tested on: human tumor cell lines; assay: NCI SRB cytotoxicity, all fifty nine human tumor cell lines; assay type: cell-based; design: Log10 TGI mean graph midpoint (MG_MID): unit not given here; conditions: for GI50: Homo sapiens; for cytotoxicity: against cancer cell lines, in words; for LC50: read-out: Log10 LC50 mean graph midpoint (MG_MID) (converted)
Procedure: as §1
The mean graph midpoint values of Log10 TGI and Log10 LC50 as well as Log10 GI50 for compounds 7e, 8e, 10e, 11e, 12e, 13e and 8f is listed in Table-3. […] The mean graph mid points of Log10 TGI and Log10, LC50 have shown similar pattern to the log10 GI50 mean graph mid points.

[28] = across fifty nine cell lines in nine cell panels, read-out: GI50 value range
[29] = against human tumor cell lines, read-out: Log10 GI50 mean graph midpoint (MG_MID) (converted)

Structure (SMILES) | GI50 [1] | GI50 [2] | GI50 [3] | GI50 [4] | GI50 [5] | GI50 [6] | GI50 [7] | GI50 [8] | GI50 [9] | GI50 [10] | GI50 [11] | GI50 [12] | GI50 [13] | GI50 [14] | GI50 [15] | GI50 [16] | GI50 [17] | GI50 [18] | GI50 [19] | GI50 [20] | further results
COc1cc(C(=O)/C=C/c2cc(-c3cc(OC)c(OC)c(OC)c3)n[nH]2)cc(OC)c1OC [10e, (E)-1-(3,4,5-trimethoxyphenyl)-3-(3-(3,4,5-trimethoxyphenyl)-1H-pyrazol-5-yl)prop-2-en-1-one] | 2.96 µM | 0.31 µM | 0.39 µM | 1.46 µM | 0.86 µM | 3.04 µM | 1.89 µM | 1.83 µM | 1.5 µM | 1.49 µM | 1.54 µM | 1.49 µM | 1.96 µM | 1.57 µM | 3.14 µM | 1.45 µM | 1.64 µM | 1.58 µM | 3.2 µM | 1.56 µM | GI50 [21]: 0.64 µM; GI50 [22]: 1.52 µM; GI50 [23]: 2.68 µM; GI50 [24]: 1.15 µM; GI50 [25]: 1.29 µM; LC50 [25]: 13.5 µM; Log10 TGI (concentration in mol/L causing total growth inhibition (0% growth)) [25]: −5.42 mol/L; GI50 [26]: 1.58 µM; CC50 [26]: 7.59 µM; Log10 TGI (concentration in mol/L causing total growth inhibition (0% growth)) [26]: −5.45 mol/L; GI50 [27, 28]: 0.18 to 29.2 µM; GI50 [27, 29]: 1.55 µM; cytotoxicity [27]: significant cytotoxicity; Log10 TGI mean graph midpoint (MG_MID) ([27]; against human tumor cell lines): −5.36; LC50 ([27]; against human tumor cell lines): 11.5 µM
COc1cc(-c2cc(/C=C/C(=O)c3ccc(Cl)c(Cl)c3)[nH]n2)cc(OC)c1OC [12e, (E)-1-(3,4-dichlorophenyl)-3-(3-(3,4,5-trimethoxyphenyl)-1H-pyrazol-5-yl)prop-2-en-1-one] | 4.96 µM | 0.53 µM | 0.39 µM | 1.72 µM | 2.53 µM | 23.4 µM | 4.9 µM | 9.56 µM | 4.29 µM | 3.37 µM | 8.7 µM | 5.65 µM | 13.9 µM | 16.3 µM | 24 µM | 10.8 µM | 20.5 µM | 6.3 µM | 4.19 µM | 10.1 µM | GI50 [21]: 1.8 µM; GI50 [22]: 8.65 µM; GI50 [23]: 16.6 µM; GI50 [24]: 1.98 µM; GI50 [25]: 6.61 µM; LC50 [25]: 200 µM; Log10 TGI (concentration in mol/L causing total growth inhibition (0% growth)) [25]: −4.52 mol/L; GI50 [26]: 8.91 µM; CC50 [26]: 93.3 µM; Log10 TGI (concentration in mol/L causing total growth inhibition (0% growth)) [26]: −4.22 mol/L; GI50 [27, 28]: 0.18 to 29.2 µM; GI50 [27, 29]: 6.61 µM; cytotoxicity [27]: significant cytotoxicity; Log10 TGI mean graph midpoint (MG_MID) ([27]; against human tumor cell lines): −4.35; LC50 ([27]; against human tumor cell lines): 89.1 µM
